Measured values from article PMC7832312, “Enhancing the Physiochemical Properties of Puerarin via L-Proline Co-Crystallization: Synthesis, Characterization, and Dissolution Studies of Two Phases of Pharmaceutical Co-Crystals” (International Journal of Molecular Sciences, 2021).
≈ marks a conversion by molar mass, not a printed value.

Assays:
[1] = cited from earlier work
CT-26 cancer cell lines = experiment: Cytotoxicity evaluation by MTT assay, CT-26; type: cell-based, murine; conditions: CT-26, culturing 24 h
Description: (§1) CT-26 and HEK-293 cell line was purchased from American Type Culture Collection (Manassas, VA, USA). The cell lines were cultured in RPMI 1640 (for CT-26) or DMEM (for HEK-293) containing 10% fetal bovine serum (FBS, Zhejiang Tianhang Biotechnology Co. Ltd., Hangzhou, China) and 1% penicillin/streptomycin (Zhejiang Tianhang Biotechnology Co. Ltd., Hangzhou, China). Cells grew as a monolayer and were detached upon confluence using trypsin (0.5% w/v in PBS, Zhejiang Tianhang Biotechnology Co. Ltd., Hangzhou, China). The cells were harvested from the cell culture medium by incubating in trypsin solution for 3 min. The cells were centrifuged, and the supernatant discarded. A 3 mL portion of serum-supplemented cell culture medium was added to neutralize any residual trypsin. The cells were re-suspended in serum-supplemented RPMI 1640 (for CT-26) or DMEM (for HEK-293) at a concentration of 5 × 10^4 cells per 1 mL. Cells were cultured at 37 °C and 5% CO2 for MTT studies.
(§2) The CT-26 or HEK-293 cells were seeded at a density of 1 × 10^4 cells per well in 100 µL of complete RPMI 1640 (CT-26) or DMEM (for HEK-293), and cultured for 16 h for attachment. The culture medium was then replaced by a serum-free medium containing various concentrations of pristine PUE, I, and II. […] After incubating the cells at 37 °C for 4 h, the MTT solution was removed and DMSO (100 μL) added to dissolve the formazan crystals formed, and the microplates were agitated for 5 min at a medium rate before the spectrophotometric measurement at a wavelength of 570 nm on a microplate reader. […] The relative cell viability (%) related to control cells was calculated by the formula below: V%=[A]experimental−[A]blank/[A]control−[A]blank×100% where V% is the percentage of cell viability, [A]experimental is the absorbance of the wells culturing the treated cells, [A]blank is the absorbance of the blank, and [A]control is the absorbance of the wells culturing untreated cells.

[2] = Dissolution rate measurement (UV, 250 mL medium, 150 RPM, 2 h, 37 °C); type: physicochemical; conditions: 37 °C
Description: The solubility and dissolution studies of pure PUE, I, and II were measured using a Thermo Scientific Evolution 300 UV spectrometer in deionized water at pH 7.0, gastrointestinal tract at pH 1.2, and phosphate buffer at pH 6.8 solution at 37 °C. The concentration was calculated utilizing a standard curve, which was made by measuring the absorbance of different concentrations at their λmax. A superfluity sum of the sample was added to 10 mL of H2O medium, pH 1.2 and pH 6.8 phosphate, respectively.
(§3) The oversaturated solution was stirred at 500 RPM by magnetic stirring at 37 °C for 24 h and the suspension was filtered through Whatman’s […] syringe channel, diluted sufficiently and the absorbance was measured at their λmax. For the dissolution rate, the sample was specifically poured into 250 mL pH 7.0 water, pH 1.2 gastrointestinal tract, and pH 6.8 phosphates medium and then stirred at 150 RPM for 2h at 37 °C. Each solution was measured by the absorbance at λmax. At customary interims, the solution was replenished with 3 mL of the respective blank solution to maintain an overall steady volume.

[3] = Solubility measurement (UV, oversaturated solution stirred 24 h at 37 °C); type: physicochemical; conditions: thermodynamic from solid, average of three replicates
Description: The concentration was calculated utilizing a standard curve, which was made by measuring the absorbance of different concentrations at their λmax. A superfluity sum of the sample was added to 10 mL of H2O medium, pH 1.2 and pH 6.8 phosphate, respectively.
as §3

HEK-293 cell lines = experiment: Cytotoxicity evaluation by MTT assay, HEK-293; type: cell-based, human; conditions: HEK-293, culturing 24 h
Description: as §1, §2

In the case of O=c1c(-c2ccc(O)cc2)coc2c([C@@H]3O[C@H](CO)[C@@H](O)[C@H](O)[C@H]3O)c(O)ccc12 [PUE, Puerarin], the elimination half-life [1] is listed as “short”, the oral bioavailability [1] is listed as “about 7%” and the “cytotoxicity (MTT cell viability)” value (CT-26 cancer cell lines) is listed as “negligible cytotoxicity”. The Time-dependent dissolution rate ([2]; Water, 5 min) was 0.062 mg/mL, the Time-dependent dissolution rate ([2]; Water, 10 min) was 0.109 mg/mL and the Time-dependent dissolution rate ([2]; Water, 15 min) was 0.190 mg/mL. It also gave a Time-dependent dissolution rate ([2]; Water, 20 min) of 0.250 mg/mL, a Time-dependent dissolution rate ([2]; Water, 25 min) of 0.294 mg/mL and a Time-dependent dissolution rate ([2]; Water, 30 min) of 0.506 mg/mL. It also gave a Time-dependent dissolution rate ([2]; Water, 40 min) of 0.611 mg/mL, a Time-dependent dissolution rate ([2]; Water, 50 min) of 0.692 mg/mL and a Time-dependent dissolution rate ([2]; Water, 60 min) of 0.821 mg/mL. For the same compound, the Time-dependent dissolution rate ([2]; Water, 80 min) was 0.896 mg/mL, the Time-dependent dissolution rate ([2]; Water, 100 min) was 0.935 mg/mL and the Time-dependent dissolution rate ([2]; Water, 120 min) was 1.031 mg/mL. The Time-dependent dissolution rate ([2]; pH 1.2, 5 min) was 0.008 mg/mL, the Time-dependent dissolution rate ([2]; pH 1.2, 10 min) was 0.019 mg/mL and the Time-dependent dissolution rate ([2]; pH 1.2, 15 min) was 0.023 mg/mL. For the same compound, the Time-dependent dissolution rate ([2]; pH 1.2, 20 min) was 0.030 mg/mL, the Time-dependent dissolution rate ([2]; pH 1.2, 25 min) was 0.035 mg/mL and the Time-dependent dissolution rate ([2]; pH 1.2, 30 min) was 0.043 mg/mL. The Time-dependent dissolution rate ([2]; pH 1.2, 40 min) was 0.163 mg/mL, the Time-dependent dissolution rate ([2]; pH 1.2, 50 min) was 0.354 mg/mL and the Time-dependent dissolution rate ([2]; pH 1.2, 60 min) was 0.394 mg/mL. It also gave a Time-dependent dissolution rate ([2]; pH 1.2, 80 min) of 0.435 mg/mL, a Time-dependent dissolution rate ([2]; pH 1.2, 100 min) of 0.568 mg/mL and a Time-dependent dissolution rate ([2]; pH 1.2, 120 min) of 0.685 mg/mL. It also gave a Time-dependent dissolution rate ([2]; pH 6.8, 5 min) of 0.078 mg/mL, a Time-dependent dissolution rate ([2]; pH 6.8, 10 min) of 0.110 mg/mL and a Time-dependent dissolution rate ([2]; pH 6.8, 15 min) of 0.168 mg/mL. The Time-dependent dissolution rate ([2]; pH 6.8, 20 min) was 0.244 mg/mL, the Time-dependent dissolution rate ([2]; pH 6.8, 25 min) was 0.274 mg/mL and the Time-dependent dissolution rate ([2]; pH 6.8, 30 min) was 0.347 mg/mL. For the same compound, the Time-dependent dissolution rate ([2]; pH 6.8, 40 min) was 0.415 mg/mL, the Time-dependent dissolution rate ([2]; pH 6.8, 50 min) was 0.444 mg/mL and the Time-dependent dissolution rate ([2]; pH 6.8, 60 min) was 0.504 mg/mL. It also gave a Time-dependent dissolution rate ([2]; pH 6.8, 80 min) of 0.560 mg/mL, a Time-dependent dissolution rate ([2]; pH 6.8, 100 min) of 0.641 mg/mL and a Time-dependent dissolution rate ([2]; pH 6.8, 120 min) of 0.785 mg/mL. The solubility at 24 h ([3]; aqueous buffer, phosphate buffer at pH 6.8, 37 °C) was 2490 µg/mL (≈ 5.97 mM), the solubility at 24 h ([3]; deionized water, Distilled Water (pH 7.0), 37 °C) was 2530 µg/mL (≈ 6.07 mM) and the solubility at 24 h ([3]; gastrointestinal tract medium pH 1.2, simulated gastric fluid, gastrointestinal tract at pH 1.2, 37 °C) was 1510 µg/mL (≈ 3.63 mM). The “cytotoxicity (MTT cell viability)” value (HEK-293 cell lines) was “negligible cytotoxicity”.
